The values below come from ChEMBL document CHEMBL5104190, “Design, Synthesis, Biological Activity, and Structural Analysis of Novel Des-C-Ring and Aromatic-D-Ring Analogues of 1α,25-Dihydroxyvitamin D3” (J Med Chem, 2022).

Calls of active or inactive are those of the source. No cut-off for these calls is given here.

The target in data set [1] is T1, Vitamin D3 receptor (Homo sapiens) (UniProt P11473).
T1 sequence (whole entry): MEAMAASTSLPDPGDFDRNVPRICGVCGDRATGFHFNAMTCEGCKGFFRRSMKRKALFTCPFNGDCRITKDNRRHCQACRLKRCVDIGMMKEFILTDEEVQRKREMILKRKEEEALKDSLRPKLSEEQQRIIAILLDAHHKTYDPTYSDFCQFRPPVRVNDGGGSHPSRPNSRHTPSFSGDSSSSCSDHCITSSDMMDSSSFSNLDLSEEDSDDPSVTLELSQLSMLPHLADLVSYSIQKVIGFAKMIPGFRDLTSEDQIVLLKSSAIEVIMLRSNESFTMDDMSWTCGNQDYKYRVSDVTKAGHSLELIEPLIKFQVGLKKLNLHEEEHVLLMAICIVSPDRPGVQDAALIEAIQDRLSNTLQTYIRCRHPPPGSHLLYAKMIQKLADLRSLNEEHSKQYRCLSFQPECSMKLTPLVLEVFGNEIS
Kind of data set: Competitive binding affinity to His-tagged human VDR LBD (156 to 453 residues) expressed in Escherichia coli […] (DE3) cells at 0.1 to 100 nM in presence of 1,25D3 by fluorescent polarization assay relative to (1R,3S)-5-(2-((1R,3aS,7aR)-1-((R)-6-hydroxy-6-methylheptan-2-yl)-7a-methyloctahydro-4H-inden-4-ylidene)ethylidene)-4-methylenecyclohexane-1,3-diol. As to conditions: dose 0.1-100 nM.

Data set [2] has as its target T2, CYP24A1 (Homo sapiens, UniProt Q07973).
T2 sequence (Q07973 whole entry): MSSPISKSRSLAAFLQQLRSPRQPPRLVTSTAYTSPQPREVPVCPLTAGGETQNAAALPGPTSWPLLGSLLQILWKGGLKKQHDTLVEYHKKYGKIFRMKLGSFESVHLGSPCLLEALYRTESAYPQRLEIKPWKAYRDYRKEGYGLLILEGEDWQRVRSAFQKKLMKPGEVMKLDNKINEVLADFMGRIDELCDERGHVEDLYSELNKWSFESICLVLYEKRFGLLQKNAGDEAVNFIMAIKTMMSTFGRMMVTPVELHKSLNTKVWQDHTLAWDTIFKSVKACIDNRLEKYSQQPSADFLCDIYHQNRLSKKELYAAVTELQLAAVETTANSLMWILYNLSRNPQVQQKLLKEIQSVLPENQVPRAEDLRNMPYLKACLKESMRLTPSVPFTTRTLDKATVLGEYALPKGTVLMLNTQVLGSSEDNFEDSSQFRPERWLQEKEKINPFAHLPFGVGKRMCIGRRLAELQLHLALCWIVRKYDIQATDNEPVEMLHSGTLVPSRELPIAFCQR
Kind of data set: Induction of CYP24A1 (unknown orgin) transcriptional activity trasfected in human MCF7 cells at 0.1 to 1000 nM incuabted for 48 hrs by luciferase reporter gene assay relative to (1R,3S)-5-(2-((1R,3aS,7aR)-1-((R)-6-hydroxy-6-methylheptan-2-yl)-7a-methyloctahydro-4H-inden-4-ylidene)ethylidene)-4-methylenecyclohexane-1,3-diol. To be noted: MCF7 cells transfected with CYP24A1 luciferase reporter, dose 0.1-1000 nM. The class given is ADME, cell-based. In general terms: Reporter assays use an easily measured gene product as a stand-in for the process of interest.

Data set [3] deals with T3, Vitamin D3 receptor (Homo sapiens, UniProt P11473).
T3 sequence (P11473 whole entry): T1 sequence (whole entry)
Kind of data set: Competitive binding affinity to His-tagged human VDR LBD (156 to 453 residues) expressed in Escherichia coli […] (DE3) cells in presence of 1,25D3 by fluorescent polarization assay.

Data set [4] concerns MCF7. In words: Increase in E-cadherin expression level in human MCF7 cells at 0.1 to 100 nM measured for 48 hrs by Western blot analysis. In kind it is functional, cell-based. To be noted: dose 0.1-100 nM.

By Emax is commonly meant the maximal effect, on the per cent scale that the assay sets. The term IC50 denotes the concentration needed to halve the response being measured. As to `C=C1/C(=C\C=C(/CCCCCC(C)(C)O)c2cccc(CCCCCC(C)(C)O)c2)C[C@@H](O)C[C@@H]1O`, the Emax in data set [1] was 4.5%. This compound also registered a maximal effect (Emax) at 48 h in data set [2] of 54%. Further, the 50% inhibitory concentration (IC50) in data set [3] was 27.3 nM. Moreover, the result in data set [4] was Active.

For the compound `C=C1/C(=C\C=C\c2cc(CCCCCC(C)(C)O)cc(CCCCCC(C)(C)O)c2)C[C@@H](O)C[C@@H]1O`, the Emax in data set [1] came out at 7.9%. Moreover, the Emax at 48 h in data set [2] is 102%. The half-maximal inhibitory concentration (IC50) in data set [3] stood at 15.7 nM. Besides, the outcome in data set [4] was Active.
